From US9975907B2, “Pyrimidinones as PI3K inhibitors” (Incyte Corporation, priority 2009, dated 2018)
Where a name gives a salt, the structure may show the parent alone.

What follows are compounds tested against PI3Kδ (p110δ/p85α) (Homo sapiens (Human), UniProt O00329) (assay: PI3Kδ Scintillation Proximity Assay (Assay A3)). Conditions: column b, Assay A3 (SPA), 20 μM ATP.
Type: biochemical
Source text: [γ-^33P]ATP (10 mCi/mL) was purchased from Perkin-Elmer (Waltham, Mass.). Lipid kinase substrate, D-myo-Phosphatidylinositol 4,5-bisphosphate (PtdIns(4,5)P2)D (+)-sn-1,2-di-O-octanoylglyceryl, 3-O-phospho linked (PIP2), CAS 204858-53-7, was purchased from Echelon Biosciences (Salt Lake City, Utah). PI3Kδ (p110δ/p85α) was purchased from Millipore (Bedford, Mass.). ATP, MgCl2, DTT, EDTA, MOPS and CHAPS were purchased from Sigma-Aldrich (St. Louis, Mo.). Wheat Germ Agglutinin (WGA) YSi SPA Scintillation Beads was purchased from GE healthcare life sciences (Piscataway, N.J.).
The kinase reaction was conducted in polystyrene 384-well matrix white plate from Thermo Fisher Scientific in a final volume of 25 μL. Inhibitors were first diluted serially in DMSO and added to the plate wells before the addition of other reaction components. The final concentration of DMSO in the assay was 0.5%. The PI3K assays were carried out at room temperature in 20 mM MOPS, pH 6.7, 10 mM MgCl2, 5 mM DTT and CHAPS 0.03%. Reactions were initiated by the addition of ATP, the final reaction mixture consisted of 20 μM PIP2, 20 μM ATP, 0.2 μCi [γ-^33P] ATP, 4 nM PI3Kδ. Reactions were incubated for 210 min and terminated by the addition of 40 μL SPA beads suspended in quench buffer: 150 mM potassium phosphate pH 8.0, 20% glycerol. 25 mM EDTA, 400 μM ATP. The final concentration of SPA beads was 1.0 mg/mL. After the plate sealing, plates were shaken overnight at room temperature and centrifuged at 1800 rpm for 10 minutes, the radioactivity of the product was determined by scintillation counting on Topcount (Perkin-Elmer). IC50 determination was performed by fitting the curve of percent control activity versus the log of the inhibitor concentration using the GraphPad Prism 3.0 software.

PI3Kδ (p110δ/p85α), sequence (O00329 whole entry, species assumed): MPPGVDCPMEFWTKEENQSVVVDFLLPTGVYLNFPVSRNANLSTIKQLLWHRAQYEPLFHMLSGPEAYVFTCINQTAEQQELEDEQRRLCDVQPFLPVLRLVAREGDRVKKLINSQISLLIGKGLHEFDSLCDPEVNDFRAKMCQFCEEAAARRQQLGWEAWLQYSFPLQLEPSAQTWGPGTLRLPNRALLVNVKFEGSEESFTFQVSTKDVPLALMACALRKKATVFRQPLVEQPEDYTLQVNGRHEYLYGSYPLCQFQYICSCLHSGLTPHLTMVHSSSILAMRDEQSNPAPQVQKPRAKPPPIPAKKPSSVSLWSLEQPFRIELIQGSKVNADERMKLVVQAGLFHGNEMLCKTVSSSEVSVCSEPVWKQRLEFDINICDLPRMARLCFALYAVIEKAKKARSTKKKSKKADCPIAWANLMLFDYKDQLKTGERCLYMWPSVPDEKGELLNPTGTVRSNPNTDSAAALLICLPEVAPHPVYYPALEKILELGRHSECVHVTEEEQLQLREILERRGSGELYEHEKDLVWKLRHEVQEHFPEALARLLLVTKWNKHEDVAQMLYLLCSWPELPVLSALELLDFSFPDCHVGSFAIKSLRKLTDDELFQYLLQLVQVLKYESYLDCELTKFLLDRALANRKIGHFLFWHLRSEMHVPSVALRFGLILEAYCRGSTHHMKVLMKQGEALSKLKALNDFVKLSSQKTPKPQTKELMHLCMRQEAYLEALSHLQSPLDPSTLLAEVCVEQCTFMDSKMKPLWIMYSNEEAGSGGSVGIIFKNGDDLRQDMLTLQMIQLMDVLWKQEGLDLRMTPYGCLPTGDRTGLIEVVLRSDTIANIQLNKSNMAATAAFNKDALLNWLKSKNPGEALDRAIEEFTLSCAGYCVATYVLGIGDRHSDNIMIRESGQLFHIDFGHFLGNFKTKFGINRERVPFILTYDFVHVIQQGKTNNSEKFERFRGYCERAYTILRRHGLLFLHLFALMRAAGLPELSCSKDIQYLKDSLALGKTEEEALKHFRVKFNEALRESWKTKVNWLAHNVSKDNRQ
PI3Kδ (p110δ/p85α), sequence (P27986 whole entry partner, species assumed): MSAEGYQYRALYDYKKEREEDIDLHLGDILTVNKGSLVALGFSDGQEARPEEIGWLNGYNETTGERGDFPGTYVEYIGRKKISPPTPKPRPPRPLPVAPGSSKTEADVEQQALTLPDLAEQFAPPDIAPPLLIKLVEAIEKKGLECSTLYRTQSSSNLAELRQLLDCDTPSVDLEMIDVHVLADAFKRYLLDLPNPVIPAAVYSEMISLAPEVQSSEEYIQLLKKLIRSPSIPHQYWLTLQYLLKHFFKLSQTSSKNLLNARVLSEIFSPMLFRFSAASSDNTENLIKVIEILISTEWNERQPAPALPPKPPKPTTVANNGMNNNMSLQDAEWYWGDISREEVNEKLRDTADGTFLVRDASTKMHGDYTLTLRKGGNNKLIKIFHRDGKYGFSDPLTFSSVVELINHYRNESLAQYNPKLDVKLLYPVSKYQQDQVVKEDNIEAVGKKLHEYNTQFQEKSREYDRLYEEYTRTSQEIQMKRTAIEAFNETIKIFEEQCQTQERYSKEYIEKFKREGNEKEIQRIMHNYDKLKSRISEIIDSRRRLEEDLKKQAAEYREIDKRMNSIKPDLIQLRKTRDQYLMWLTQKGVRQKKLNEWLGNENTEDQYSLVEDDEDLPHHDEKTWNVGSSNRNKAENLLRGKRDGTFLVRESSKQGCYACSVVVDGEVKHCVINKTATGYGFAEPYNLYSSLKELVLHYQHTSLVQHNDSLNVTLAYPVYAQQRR

`Cc1cccc2nc(C(C)Nc3nc(N)nc4[nH]cnc34)c(-c3ccccc3)c(=O)n12` (stereo not drawn) [Example 50, 2-{1-[(2-Amino-9H-purin-6-yl)amino]ethyl}-6-methyl-3-phenyl-4H-pyrido[1,2-a]pyrimidin-4-one trifluoroacetic acid salt] and `Cc1cccc(-c2c(C(C)Nc3nc(N)nc4[nH]cnc34)nc3cccc(C)n3c2=O)c1` (stereo not drawn) [Example 52, 2-{1-[(2-Amino-9H-purin-6-yl)amino]ethyl}-6-methyl-3-(3-methylphenyl)-4H-pyrido[1,2-a]pyrimidin-4-one trifluoroacetic acid salt] cannot be ordered by IC50: under 50 nM for the first, under 50 nM for the second.

First: CC(Nc1nc(N)nc2[nH]cnc12)c1nc2sccn2c(=O)c1-c1ccccc1 (stereo not drawn) [Example 27, 7-{1-[(2-amino-9H-purin-6-yl)amino]ethyl}-6-phenyl-5H-[1,3]thiazolo[3,2-a]pyrimidin-5-one]
Second: CC(Nc1ncnc2[nH]cnc12)c1nc2sccn2c(=O)c1-c1ccccc1 (stereo not drawn) [Example 29, 6-phenyl-7-[1-(9H-purin-6-ylamino)ethyl]-5H-[1,3]thiazolo[3,2-a]pyrimidin-5-one]
The IC50 of the first is lower: 100 to 500 nM for the first, over 500 nM for the second.

`Cc1csc2nc(C(C)Nc3nc(N)nc4[nH]cnc34)c(-c3cccc(Cl)c3)c(=O)n12` (stereo not drawn) [Example 32, 7-{1-[(2-amino-9H-purin-6-yl)amino]ethyl}-6-(3-chlorophenyl)-3-methyl-5H-[1,3]thiazolo[3,2-a]pyrimidin-5-one trifluoroacetic acid salt] and `Cc1csc2nc(C(C)Nc3nc(N)nc4[nH]cnc34)c(-c3cc(F)cc(Cl)c3)c(=O)n12` (stereo not drawn) [Example 35, 7-{1-[(2-amino-9H-purin-6-yl)amino]ethyl}-6-(3-chloro-5-fluorophenyl)-3-methyl-5H-[1,3]thiazolo[3,2-a]pyrimidin-5-one trifluoroacetic acid salt] fall in the same range of IC50: 50 to 100 nM for the first, 50 to 100 nM for the second.

First: Cc1csc2nc(C(C)Nc3nc(N)nc4[nH]cnc34)c(-c3cccc(F)c3F)c(=O)n12 (stereo not drawn) [Example 34, 7-{1-[(2-amino-9H-purin-6-yl)amino]ethyl}-6-(2,3-difluorophenyl)-3-methyl-5H-[1,3]thiazolo[3,2-a]pyrimidin-5-one trifluoroacetic acid salt]
Second: Cc1csc2nc(C(C)Nc3ncnc4[nH]cnc34)c(-c3cccc(F)c3F)c(=O)n12 (stereo not drawn) [Example 41, 6-(2,3-difluorophenyl)-3-methyl-7-[1-(9H-purin-6-ylamino)ethyl]-5H-[1,3]thiazolo[3,2-a]pyrimidin-5-one trifluoroacetic acid salt]
The IC50 of the first is lower: under 50 nM for the first, 50 to 100 nM for the second. The first is the more potent here.

Going from `Cc1cccc2nc(C(C)Nc3nc(N)nc4[nH]cnc34)c(-c3ccc(Cl)cc3)c(=O)n12` (stereo not drawn) [Example 56, 2-{1-[(2-Amino-9H-purin-6-yl)amino]ethyl}-3-(4-chlorophenyl)-6-methyl-4H-pyrido[1,2-a]pyrimidin-4-one trifluoroacetic acid salt] to `Cc1cccc2nc(C(C)Nc3nc(N)nc4[nH]cnc34)c(-c3ccccc3F)c(=O)n12` (stereo not drawn) [Example 60, 2-{1-[(2-Amino-9#-purin-6-yl)amino]ethyl}-3-(2-fluorophenyl)-6-methyl-4H-pyrido[1,2-a]pyrimidin-4-one trifluoroacetic acid salt], the IC50 falls from over 500 nM to under 50 nM. The second is the more potent here.

First: CC(Nc1nc(N)nc2[nH]cnc12)c1nc2ccccn2c(=O)c1-c1cc(F)cc(F)c1 (stereo not drawn) [Example 80, 2-{1-[(2-Amino-9H-purin-6-yl)amino]ethyl}-3-(3,5-difluorophenyl)-4H-pyrido[1,2-a]pyrimidin-4-one trifluoroacetic acid salt]
Second: CCc1cccc2nc(C(C)Nc3nc(N)nc4[nH]cnc34)c(-c3cc(F)cc(F)c3)c(=O)n12 (stereo not drawn) [Example 77, 2-{1-[(2-Amino-9#-purin-6-yl)amino]ethyl}-3-(3,5-difluorophenyl)-6-ethyl-4H-pyrido[1,2-a]pyrimidin-4-one trifluoroacetic acid salt]
The IC50 of the first is higher: 100 to 500 nM for the first, 50 to 100 nM for the second. The second is the more potent here.

`Cc1cc(-c2c(C(C)Nc3ncnc4[nH]cnc34)nc3cccc(C)n3c2=O)cnc1Cl` (stereo not drawn) [Example 81, 3-(6-Chloro-5-methylpyridin-3-yl)-6-methyl-2-[1-(9H-purin-6-ylamino)ethyl]-4H-pyrido[1,2-a]pyrimidin-4-one trifluoroacetic acid salt] and `Cc1cc(-c2c(C(C)Nc3nc(N)nc4[nH]cnc34)nc3cccc(C)n3c2=O)cnc1Cl` (stereo not drawn) [Example 82, 2-{1-[(2-Amino-9H-purin-6-yl)amino]ethyl}-3-(6-chloro-5-methylpyridin-3-yl)-6-methyl-4H-pyrido[1,2-a]pyrimidin-4-one trifluoroacetic acid salt] cannot be ordered by IC50: over 500 nM for the first, over 500 nM for the second.

First: Cc1cccc2nc(C(C)Nc3ncnc4[nH]cnc34)c(-c3ccccc3Cl)c(=O)n12 (stereo not drawn) [Example 57, 3-(2-Chlorophenyl)-6-methyl-2-[1-(9H-purin-6-ylamino)ethyl]-4H-pyrido[1,2-a]pyrimidin-4-one trifluoroacetic acid salt]
Second: Cc1ccccc1-c1c(C(C)Nc2ncnc3[nH]cnc23)nc2cccc(C)n2c1=O (stereo not drawn) [Example 63, 6-Methyl-3-(2-methylphenyl)-2-[1-(9H-purin-6-ylamino)ethyl]-4H-pyrido[1,2-a]pyrimidin-4-one trifluoroacetic acid salt]
The IC50 of the first is lower: under 50 nM for the first, 100 to 500 nM for the second.

First: Cc1cccc2nc(C(C)Nc3ncnc4[nH]cnc34)c(-c3ccc(C#N)cc3)c(=O)n12 (stereo not drawn) [Example 61, 4-{6-Methyl-4-oxo-2-[1-(9H-purin-6-ylamino)ethyl]-4H-pyrido[1,2-a]pyrimidin-3-yl}benzonitrile trifluoroacetic acid salt]
Second: Cc1cccc2nc(C(C)Nc3ncnc4[nH]cnc34)c(-c3cccc(C#N)c3)c(=O)n12 (stereo not drawn) [Example 83, 3-{6-Methyl-4-oxo-2-[1-(9H-purin-6-ylamino)ethyl]-4H-pyrido[1,2-a]pyrimidin-3-yl}benzonitrile trifluoroacetic acid salt]
The IC50 of the first is higher: over 500 nM for the first, 100 to 500 nM for the second. The second is the more potent here.

`Cc1csc2nc(C(C)Nc3ncnc4[nH]cnc34)c(-c3cncc(F)c3)c(=O)n12` (stereo not drawn) [Example 42, 6-(5-fluoropyridin-3-yl)-3-methyl-7-[1-(9H-purin-6-ylamino)ethyl]-5H-[1,3]thiazolo[3,2-a]pyrimidin-5-one trifluoroacetic acid salt] and `Cc1csc2nc(C(C)Nc3ncnc4[nH]cnc34)c(-c3cc(F)cc(Cl)c3)c(=O)n12` (stereo not drawn) [Example 37, 6-(3-chloro-5-fluorophenyl)-3-methyl-7-[1-(9H-purin-6-ylamino)ethyl]-5H-[1,3]thiazolo[3,2-a]pyrimidin-5-one trifluoroacetic acid salt] fall in the same range of IC50: 100 to 500 nM for the first, 100 to 500 nM for the second.

Compared with `Cc1csc2nc(C(C)Nc3ncnc4[nH]cnc34)c(-c3ccc(F)cc3)c(=O)n12` (stereo not drawn) [Example 22, 6-(4-fluorophenyl)-3-methyl-7-[1-(9H-purin-6-ylamino)ethyl]-5H-[1,3]thiazolo[3,2-a]pyrimidin-5-one trifluoroacetic acid salt], `Cc1csc2nc(C(C)Nc3ncnc4[nH]cnc34)c(-c3cscn3)c(=O)n12` (stereo not drawn) [Example 21, 3-methyl-7-[1-(9H-purin-6-ylamino)ethyl]-6-(1,3-thiazol-4-yl)-5H-[1,3]thiazolo[3,2-a]pyrimidin-5-one trifluoroacetic acid salt] is lower in IC50: 50 to 100 nM for the first, under 50 nM for the second. The second is the more potent here.

First: CC(Nc1ncnc2[nH]cnc12)c1nc2scc(C(F)(F)F)n2c(=O)c1-c1cccc(F)c1 (stereo not drawn) [Example 48, 6-(3-Fluorophenyl)-7-[1-(9H-purin-6-ylamino)ethyl]-3-(trifluoromethyl)-5H-[1,3]thiazolo[3,2-a]pyrimidin-5-one]
Second: Cc1cccc2nc(C(C)Nc3ncnc4[nH]cnc34)c(-c3ccc(F)c(F)c3)c(=O)n12 (stereo not drawn) [Example 68, 3-(3,4-Difluorophenyl)-6-methyl-2-[1-(9H-purin-6-ylamino)ethyl]-4H-pyrido[1,2-a]pyrimidin-4-one trifluoroacetic acid salt]
The IC50 of the first is lower: 50 to 100 nM for the first, 100 to 500 nM for the second.

First: Cc1csc2nc(C(C)Nc3ncnc4[nH]ccc34)c(-c3cc(F)cc(F)c3)c(=O)n12 (stereo not drawn) [Example 17, 6-(3,5-difluorophenyl)-3-methyl-7-[1-(7H-pyrrolo[2,3-d]pyrimidin-4-ylamino)ethyl]-5H-[1,3]thiazolo[3,2-a]pyrimidin-5-one]
Second: Cc1cccc2nc(C(C)Nc3ncnc4[nH]cnc34)c(-c3cccc(F)c3F)c(=O)n12 (stereo not drawn) [Example 66, 3-(2,3-Difluorophenyl)-6-methyl-2-[1-(9H-purin-6-ylamino)ethyl]-4H-pyrido[1,2-a]pyrimidin-4-one trifluoroacetic acid salt]
The IC50 of the first is higher: 100 to 500 nM for the first, under 50 nM for the second.

Compound `Cc1cccc2nc(C(C)Nc3ncnc4[nH]cnc34)c(-c3cccc(Cl)c3)c(=O)n12` (stereo not drawn) [Example 53, 3-(3-Chlorophenyl)-6-methyl-2-[1-(9H-purin-6-ylamino)ethyl]-4H-pyrido[1,2-a]pyrimidin-4-one trifluoroacetic acid salt] has an IC50 of 100 to 500 nM.
